What was measured:
[1] = tested on: monocytes isolated from the liver; assay: Flow cytometry of monocytes / inflammatory cells isolated from the liver of ethanol-fed mice; type: in vivo; details: 3 g/kg ethanol daily for 2 weeks
Description: (§1) Mice were fed with 3 g/kg of ethanol together with a normal diet every day for 2 weeks. In this regard, Group 1 (E+Veh) was fed with vehicle, and Group 2 (E+GF2) was fed with ginsenoside F2.
Thereafter, monocytes were isolated from the liver, and stained with the macrophage markers, CD11b and F4/80, followed by flow cytometry. As a result, treatment of ginsenoside F2 reduced a percentage of macrophage (FIG. 6a). Flow cytometry was also performed using the neutrophil markers CD11b and Gr-1. As a result, treatment of ginsenoside F2 reduced a percentage of neutrophil (FIG. 6b).
Further, inflammatory cells in the liver were stained with regulatory T cell (Treg) markers, CD4, CD25, and Foxp3. As a result, treatment of ginsenoside F2 increased regulatory T cells, and decreased Th17 cells (IL-17 and CD4 positive) which are one of proinflammatory cells.

liver tissue = assay: Liver histological analysis (H&E, TUNEL, Oil-red O staining); type: in vivo, mice; details: 50 mg/kg oral with 3 g/kg ethanol, 2 weeks
Hepatic stellate cells = Hepatic stellate cells treated with TO901317 (real-time PCR and Western blotting); type: cell-based; details: 30 μM, 30 minutes later 10 μM TO901317, culture 12 hours
Description: Hepatic stellate cells were treated with 30 μM of ginsenoside F2, and 30 minutes later, further treated with 10 μM TO901317, followed by culture for 12 hours. FIGS. 5f and 5g show the results of real-time PCR and Western blotting of the cultured hepatic stellate cells.

mouse serum = assay: ELISA of mouse serum (cytokines); type: in vivo; details: compared with real-time PCR results; FIG. 6e
Excerpt: as §1
(§2) Further, the isolated monocytes were subjected to real-time PCR. As a result, expression of the inflammatory cytokines TNF-α, IL-6, and IL-17 increased by alcohol was inhibited by ginsenoside F2, and expression of anti-inflammatory cytokine IL-10 was increased thereby (FIG. 6d). These effects are consistent with the results of ELISA of mouse serum (FIG. 6e).

liver tissues = assay: Western blotting of proteins extracted from the liver tissues; type: in vivo, mice; details: FIG. 4c
Description: (§3) 50 mg/kg of ginsenoside F2 (indicated by GF2 in Drawing) dissolved in 3 g/kg of ethanol, together with a normal diet, were orally administered to 8-week-old male mice (weighing 25 g to 28 g) between 3 PM and 4 PM every day for 2 weeks. After 2 weeks, they were sacrificed, and the following experiment was performed.
Expression of fat oxidation-inducing pAMPK was increased and expression of lipogenic SREBP1c and FAS was reduced by administration of ginsenoside F2.

hepatic monocytes = assay: IL-10-deficient mice: hepatic monocytes (flow cytometry, real-time PCR); type: in vivo
Description: (§4) 8-week-old IL-10-deficient male mice (weighing 25 g to 28 g) were orally administered with 3 g/kg ethanol and 50 mg/kg ginsenoside F2, together with a normal diet, every day for 2 weeks (E+GF2). A control group was fed with an equal amount of ethanol and vehicle instead of ginsenoside F2 (E+Veh). 2 weeks later, the sera, liver tissues, and hepatic monocytes were obtained from the mice by autopsy. Thereafter, in the same manner as in Example 1. (1), the serum ALT, AST, TG, and cholesterol levels were measured, and necrotic foci were examined in the liver tissue to count the number of necrotic foci in two sections of the liver. In the hepatic monocytes, macrophage and neutrophil expression levels were examined by flow cytometry using F4/80 or Gr1 antigen marker.

[2] = tested on: hepatocytes separated from mouse liver; assay: Lipogenesis-related index in hepatocytes separated from mouse liver; type: in vivo; details: EtOH+GF2 vs EtOH+Vehicle; FIG. 4a
Description: as §3

[3] = tested on: human hepatocyte cell line HepG2A; assay: LXR-mediated fat synthesis in HepG2A (real-time PCR); type: cell-based
Description: To examine a fat synthesis inhibition mechanism of ginsenoside F2, human hepatocyte cell line HepG2A was treated with 30 μM ginsenoside F2, and 30 minutes later, further treated with 10 μM TO901317, which induces fat synthesis as an LXR agonist stimulating fatty acid synthesis, followed by culture for 9 hours.
Further, HepG2A was treated with ginsenoside F2 by varying its concentration from 0 μM to 100 μM, and cultured for 12 hours.

[4] = tested on: hepatic stellate cells separated from mouse liver; assay: Lipogenesis-related index in hepatic stellate cells separated from mouse liver; type: in vivo; details: EtOH+GF2 vs EtOH+Vehicle; FIG. 4b
Description: as §3

[5] = tested on: IL-10-deficient male mice; assay: IL-10-deficient mice: serum levels and necrotic foci of liver tissue; type: in vivo; details: 50 mg/kg oral with 3 g/kg ethanol daily for 2 weeks
Description: as §4

isolated monocytes = assay: Real-time PCR of isolated hepatic monocytes of ethanol-fed mice; type: in vivo; details: FIG. 6d
Excerpt: as §1, §2

male mice = assay: Measurement of serum ALT, AST, TG and total cholesterol levels in ethanol-fed mice; type: in vivo; details: 50 mg/kg oral with 3 g/kg ethanol daily for 2 weeks
Description: as §3
Blood was collected from mouse abdominal aorta and centrifuged using a centrifuge at 3,300 rpm for 10 minutes to separate only the serum. The levels of ALT (alanine aminotransferase) and AST ([…]) in the serum were measured using a kit of IDEXX Laboratories (USA) in accordance with the manufacturer's instructions by VetTEST (IDEXX, USA). Further, 50 mg of the hepatic tissue was excised and ground, and then a chloroform-methanol (2:1) solution was added thereto, followed by centrifugation. The lipid components contained in the hepatic tissue were extracted, and the levels of triglyceride (TG) and total cholesterol in the extract solution were measured using a kit of IDEXX Laboratories (USA) in accordance with the manufacturer's instructions by VetTEST.

[6] = tested on: breast cancer stem cells (CSCs); details: Mai T T et al. 2012; cited from earlier work
[7] = tested on: co-cultured hepatic stellate cells; assay: Co-culture with ethanol: co-cultured hepatic stellate cells; type: cell-based, mice; details: 100 mM ethanol 12 hours, then 30 μM for 6 or 12 hours; FIG. 5d
Description: (§5) During the culture, they were treated with 100 mM ethanol for 12 hours, and then 30 μM ginsenoside F2 for 6 hours or 12 hours.

co-cultured hepatocytes = assay: Co-culture with ethanol: co-cultured hepatocytes (Western blotting, real-time PCR); type: cell-based, mice; details: 100 mM ethanol 12 hours, then 30 μM for 6 or 12 hours
Description: as §5

Naive T cells = assay: Differentiation of naive T cells into IL-17-producing Th17 cells; type: cell-based, mice; details: 0 μM to 30 μM
Description: Naive T cells were isolated from mice, and treated with 5 ng/mL TGF-β1 and 20 ng/mL IL-6, and then cultured in a CD3/28 antibody-coated dish for 3.5 days to differentiate the cells into proinflammatory Th17 cells (T helper 17 cells). In this regard, the cells were also treated with ginsenoside F2 by varying its concentration (0 μM to 30 μM), and markers for Th17 cells were examined, and the results are shown in FIGS. 7a to 7c. N represents naive T cells treated with none of TGF-β1, IL-6, and ginsenoside F2.

glioblastoma = details: xenograft model in SD rats; Shin J Y et. al. 2012; cited from earlier work
[8] = 50 mg/kg, 2 weeks, flow cytometry, FIGS. 8d and 8e
[9] = real-time PCR using monocytes, FIG. 8h
[10] = 0 μM to 100 μM, cultured for 12 hours, FIG. 5f
[11] = 30 μM, 30 minutes later 10 μM TO901317, culture 9 hours, real-time PCR, FIG. 5e
[12] = 5 ng/mL TGF-β1 and 20 ng/mL IL-6, 3.5 days, FIGS. 7a and 7b

Compound: CC(C)=CCC[C@](C)(O[C@@H]1O[C@H](CO)[C@@H](O)[C@H](O)[C@H]1O)[C@H]1CC[C@]2(C)[C@@H]1[C@H](O)C[C@@H]1[C@@]3(C)CC[C@H](O[C@@H]4O[C@H](CO)[C@@H](O)[C@H](O)[C@H]4O)C(C)(C)[C@@H]3CC[C@]12C [ginsenoside F2]
- Th17 cells (IL-17 and CD4 positive) ([1]; E+GF2 vs E+Veh): decreased
- regulatory T cells (CD4, CD25, Foxp3) ([1]; E+GF2 vs E+Veh): increased
- percentage of macrophage (CD11b, F4/80) ([1]; E+GF2 vs E+Veh, FIG. 6a): reduced
- percentage of neutrophil (CD11b, Gr-1) ([1]; E+GF2 vs E+Veh, FIG. 6b): reduced
- percentage of CD4 T cells ([1]; FIG. 6c): no significant effects
- percentage of CD8 T cells ([1]; FIG. 6c): no significant effects
- percentage of NK cells ([1]; FIG. 6c): no significant effects
- percentage of NKT cells ([1]; FIG. 6c): no significant effects
- Triglyceride accumulation (Oil-red O staining) (liver tissue; FIG. 3a): reduced
- cell damage (TUNEL staining) (liver tissue; FIG. 3a): reduced
- ethanol-induced inflammation (H&E staining) (liver tissue; FIG. 3a): reduced
- TUNEL-positive cell death caused by alcohol administration (statistical analysis) (liver tissue; FIG. 3b): remarkably reduced
- triglycerides in the liver tissue (statistical analysis) (liver tissue; FIG. 3c): remarkably reduced
- expression of glutamate receptor mGluR1 or 5 (Hepatic stellate cells): significantly increased
- cytokine effects (TNF-α, IL-6, IL-17, IL-10) by ELISA of mouse serum (mouse serum): consistent
- Expression of fat oxidation-inducing pAMPK (liver tissues): increased
- expression of lipogenic FAS (liver tissues): reduced
- expression of lipogenic SREBP1c (liver tissues): reduced
- other immune cells (hepatic monocytes; 50 mg/kg, 2 weeks, FIG. 8f): no significant effects
- CD4+CD25+Foxp3+ regulatory T cells (hepatic monocytes; 50 mg/kg, 2 weeks, FIG. 8g): increased
- expression of macrophage (F4/80) (hepatic monocytes; [8]): no significant effects
- expression of neutrophil (Gr1) (hepatic monocytes; [8]): no significant effects
- expression of Foxp3 (hepatic monocytes; [9]): increased
- expression of inflammatory cytokine IL-6 (hepatic monocytes; [9]): increased
- expression of inflammatory cytokine IL-17 (hepatic monocytes; [9]): increased
- expression of ADH1 [2]: significantly reduced
- expression of CB1R [2]: significantly reduced
- expression of CYP2e1 [2]: significantly reduced
- expression of FAS [2]: significantly reduced
- expression of SREBP1c [2]: significantly reduced
- concentration at which an excellent inhibitory effect on SREBP1c and FAS expression was observed [3, 10]: ≥ 40 µM
- expression of FAS [3, 10]: reduced
- expression of SREBP1c [3, 10]: reduced
- expression of FAS increased by LXR agonist TO901317 [3, 11]: inhibit
- expression of SREBP1c increased by LXR agonist TO901317 [3, 11]: inhibit
- expression of DAGL-α,β [4]: significantly reduced
- fatty acid amide hydrolase (FAAH) expression [4]: significantly increased
- ALT level ([5]; FIG. 8a): no significant effects
- TG level ([5]; FIG. 8a): no significant effects
- cholesterol level ([5]; FIG. 8a): no significant effects
- necrotic foci of the liver tissue ([5]; FIGS. 8b and 8c): no great changes
- expression of anti-inflammatory cytokine IL-10 (isolated monocytes): increased
- expression of inflammatory cytokine IL-6 increased by alcohol (isolated monocytes): inhibited
- expression of inflammatory cytokine IL-17 increased by alcohol (isolated monocytes): inhibited
- expression of inflammatory cytokine TNF-α increased by alcohol (isolated monocytes): inhibited
- total cholesterol level increased by alcohol (male mice; FIG. 2): reduced
- liver injury index ALT level (male mice; FIG. 2(a)): did not significantly increase
- AST level (male mice; FIG. 2(b)): lower
- fatty liver index, TG level (male mice; FIG. 2(c)): reduced to the normal level
- cell apoptosis in breast cancer stem cells [6]: induces cell apoptosis accompanied by autophagy
- expression of DAGL-α,β [7]: reduced
- expression of lipogenic FAS (co-cultured hepatocytes; Western blotting, FIG. 5b): decreased
- expression of lipogenic SREBP1c (co-cultured hepatocytes; Western blotting, FIG. 5b): decreased
- expression of lipolytic pAMPK (co-cultured hepatocytes; Western blotting, FIG. 5b): increased
- expression of CB1R (co-cultured hepatocytes; real-time PCR, FIG. 5c): reduced
- expression of FAS (co-cultured hepatocytes; real-time PCR, FIG. 5c): reduced
- expression of SREBP1c (co-cultured hepatocytes; real-time PCR, FIG. 5c): reduced
- IL-17-expressing Th17 cells (FACS) (Naive T cells; [12]): decreased
- anti-inflammatory cytokine IL-10 (FACS) (Naive T cells; [12]): increased
- Th17 cell-specific transcription factor RORγt (Naive T cells; real-time PCR, FIG. 7c): decreased
- Th17 cell-specific transcription factor STAT3 (Naive T cells; real-time PCR, FIG. 7c): decreased
- expression of Abca1 (Naive T cells; real-time PCR, FIG. 7c): decreased
- anti-cancer effects on glioblastoma (glioblastoma): exhibits anti-cancer effects
